Results as given in patent US10376476B2, “Panicein compounds, compositions and uses thereof” (CENTRE NATIONAL DE LA RECHERCHE SCIENTIFIQUE, priority 2014, dated 2019).

These molecules were tested against T1, mutant Patched G509VD513Y (hPtcVXXXY) expressed in yeasts (Homo sapiens, UniProt Q13635, D513Y/G509V) (assay: Doxorubicin efflux from yeasts (intracellular dxr fluorescence)). Details: hPtc-YXXXG-yeasts (mutant Patched), 10 μM paniceins, 10 min, 5 mM 2-deoxy-D-glucose.
T1 construct: MAP; expressed in transfected cells; host or cells: Saccharomyces cerevisiae K699
T1 sequence (Q13635 1-1447 G509V/D513Y): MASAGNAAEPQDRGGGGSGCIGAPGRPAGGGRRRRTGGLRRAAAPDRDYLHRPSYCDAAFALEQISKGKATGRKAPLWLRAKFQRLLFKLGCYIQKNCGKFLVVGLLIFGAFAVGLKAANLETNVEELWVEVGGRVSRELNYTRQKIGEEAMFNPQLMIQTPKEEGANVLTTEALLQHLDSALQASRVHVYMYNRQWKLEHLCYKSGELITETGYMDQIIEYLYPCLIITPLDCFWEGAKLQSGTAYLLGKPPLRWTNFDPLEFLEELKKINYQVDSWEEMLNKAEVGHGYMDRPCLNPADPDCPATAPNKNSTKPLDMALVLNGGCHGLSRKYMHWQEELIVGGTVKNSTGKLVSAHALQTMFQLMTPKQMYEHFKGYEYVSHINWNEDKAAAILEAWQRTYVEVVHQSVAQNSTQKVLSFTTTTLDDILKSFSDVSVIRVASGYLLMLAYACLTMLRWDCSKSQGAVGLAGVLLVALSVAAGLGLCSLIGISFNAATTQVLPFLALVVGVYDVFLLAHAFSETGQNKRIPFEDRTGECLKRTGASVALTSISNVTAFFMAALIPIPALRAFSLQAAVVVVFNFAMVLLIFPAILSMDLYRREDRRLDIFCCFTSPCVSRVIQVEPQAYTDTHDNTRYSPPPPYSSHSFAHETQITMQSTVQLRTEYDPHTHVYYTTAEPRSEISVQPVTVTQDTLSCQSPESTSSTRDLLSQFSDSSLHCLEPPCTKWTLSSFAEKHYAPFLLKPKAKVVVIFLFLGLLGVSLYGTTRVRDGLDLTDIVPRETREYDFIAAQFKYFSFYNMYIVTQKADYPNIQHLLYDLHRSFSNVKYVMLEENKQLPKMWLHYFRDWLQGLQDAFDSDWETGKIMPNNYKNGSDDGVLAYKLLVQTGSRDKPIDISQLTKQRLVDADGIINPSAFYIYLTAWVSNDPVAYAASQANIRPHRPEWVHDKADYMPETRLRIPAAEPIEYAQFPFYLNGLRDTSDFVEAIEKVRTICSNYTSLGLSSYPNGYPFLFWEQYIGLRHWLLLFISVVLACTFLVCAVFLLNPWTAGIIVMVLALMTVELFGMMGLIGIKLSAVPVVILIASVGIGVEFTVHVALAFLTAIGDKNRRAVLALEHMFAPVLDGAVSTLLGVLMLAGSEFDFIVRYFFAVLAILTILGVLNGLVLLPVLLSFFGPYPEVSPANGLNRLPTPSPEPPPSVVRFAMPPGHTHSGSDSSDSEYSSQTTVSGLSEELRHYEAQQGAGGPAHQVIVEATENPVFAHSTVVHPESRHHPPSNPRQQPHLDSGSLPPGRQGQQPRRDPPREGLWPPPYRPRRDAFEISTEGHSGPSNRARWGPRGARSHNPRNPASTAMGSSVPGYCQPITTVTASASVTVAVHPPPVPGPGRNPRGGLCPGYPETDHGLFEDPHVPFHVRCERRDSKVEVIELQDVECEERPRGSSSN
Format: cell-based
Description: A. Compound P5 inhibits doxorubicin efflux from melanoma cells MeWo and A375. Cells were grown on cover-slips, incubated for 2 hour at 37° C. with 10 μM doxorubicin and quickly rinsed with phosphate buffer (pH 7.4). One cover-slip of each cell line was immediately fixed for doxorubicin charge control. The other cover-slips were incubated with buffer supplemented with DMSO or 10 μM of compound P5 30 min under gentle shaking and immediately fixed. Dxr intracellular fluorescence was visualized by epifluorescence and analyzed using Image J software on more than 30 cells of 3 different fields for each condition. The results were analyzed using the Student t test in which significance is attained at P<0.05 (**: P<0.005, ***: P<0.0005). B. Paniceins inhibit doxorubicin efflux from Patched-expressing yeasts. Yeasts expressing wild-type Patched (hPtc, in black), mutant Patched G509VD513Y (hPtcVXXXY, in grey), and control yeasts (in white) were incubated in buffer supplemented with 5 mM of 2-deoxy-D-glucose and 10 μM dxr for 2 hours at 4° C. After centrifugation and supernatant removing, one sample was immediately fixed for charge control and the other samples were resuspended in buffer containing 5 mM of 2-deoxy-D-glucose supplemented with DMSO or 10 μM of paniceins 10 minutes at 25° C. with gentle shaking. After centrifugation and supernatant removing, samples were fixed and deposited on coverslips for epifluorescence microscopy observation. Dxr intracellular fluorescence quantification was carried out using Image J software on more than 30 yeasts on 3 different fields for each condition. The results were analyzed using the Student t test in which significance is attained at P<0.05 (*).
On yeasts: Yeasts expressing Patched (hPtc), mutant Patched (hPtcG509VD513Y), or control yeasts were washed with cold water, resuspended at an OD600 of 10 in Hepes-NaOH buffer (pH 7.0) supplemented with 5 mM of 2-deoxy-D-glucose, and incubated with 10 μM doxorubicin for 2 hours at 4° C. in the cold room on a rotating wheel protected from light. Yeasts were centrifuged and the supernatant was removed. One sample was immediately fixed with 4% paraformaldehyde for doxorubicin loading control. The other samples were resuspended in Hepes-NaOH buffer (pH 7.0) containing 5 mM of 2-deoxy-D-glucose supplemented with DMSO or 10 μM of paniceins, and incubated 10 minutes at 20° C. with gentle shaking in a Benchmark Multi-therm shaker protected from light. Samples were centrifuged for 1 minute at 18,000 g, supernatants were removed and yeasts were fixed with 4% paraformaldehyde. 10 μL of each sample were deposited on a coverslip and observed by epifluorescence microscopy using an objective 63x and filters for Alexa 594. Quantification of doxorubicin intracellular fluorescence was carried out using Image J software on more than 30 yeasts on 3 different fields for each condition. The results were analyzed using the Student t test in which significance is attained at P <0.05.
In order to see if Paniceins inhibit dxr efflux through Patched inhibition, inventors compared dxr efflux on yeasts over-expressing human Patched and control yeasts. After loading with dxr, yeasts were centrifuged and fixed for dxr loading control (LC), or resuspended in buffer supplemented with DMSO or paniceins for efflux measurements. After 10 min a 20° C., yeasts were collected, fixed and deposited on cover-slips. 2-deoxy-D-glucose was added in buffer during loading and efflux in order to inhibit ATP-binding cassette (ABC) transporters. Dxr fluorescence intensity of at least 30 yeasts was measured for each experiment. FIGS. 6A and 12A show the mean fluorescence intensity of 3 independent experiments. […] This was confirmed using yeasts over-expressing Patched mutant VXXXY. […] Yeasts over-expressing hPtcVXXXY are less resistance to growth inhibition by dxr than yeasts over-expressing wild-type hPtc (Bidet et al., 2012).

| SMILES | Efflux (%) of dxr |
| --- | --- |
| C/C(=C\Cc1cc(O)ccc1O)CCc1c(C)c(O)c(O)c(C=O)c1C [P2, Panicein C] | 39% |
| C/C(=C\Cc1cc(O)ccc1O)CCc1c(C)cc(O)c(C=O)c1C [P3, Panicein B3] | 32% |
| Cc1cc(O)c(C=O)c(C)c1CCC1(C)C=Cc2cc(O)ccc2O1 (stereo not shown) [P4, Panicein B2] | 38% |
| COc1cc(C)c(CC/C(C)=C/Cc2cc(O)ccc2O)c(C)c1C [P5, Panicein A hydroquinone] | 42% |
